In brackets after ≈: the same amount, converted by molar mass.
Tests used:
[1] = test system: Trichophyton benhamiae; assay: Antifungal activity towards Trichophyton mentagrophytes 530324 strain; format: functional, Arthroderma benhamiae
[2] = test system: Candida albicans; assay: Antifungal activity against Candida albicans C-A-24 strain; format: functional
[3] = test system: Aspergillus fumigatus; assay: Antifungal activity against Aspergillus fumigatus Saito strain; format: functional
[4] = test system: Cryptococcus neoformans; assay: Antifungal activity against Cryptococcus neoformans Cr-1 strain; format: functional
[5] = test system: Trichophyton interdigitale; assay: Antifungal activity towards Trichophyton interdigitale; format: functional

MIC [1] [µg/mL]	MIC [2] [µg/mL]	MIC [3] [µg/mL]	MIC [4] [µg/mL]	MIC [5] [µg/mL]	SMILES
0.39 (≈ 0.801 µM)	3.13 (≈ 6.43 µM)	0.78 (≈ 1.6 µM)	6.25 (≈ 12.8 µM)	0.78 (≈ 1.6 µM)	IC(I)=C(I)Cn1ccnn1
1.56 (≈ 2.77 µM)	12.5 (≈ 22.2 µM)	–	–	3.13 (≈ 5.55 µM)	IC(I)=C(I)Cn1nnc(-c2ccccc2)n1
> 100	> 100	> 100	> 100	> 100	O=[N+]([O-])c1ccc(-c2nnn(CC(I)=C(I)I)n2)cc1
0.1 (≈ 0.189 µM)	–	–	–	0.1 (≈ 0.189 µM)	CCCc1nnn(CC(I)=C(I)I)n1
0.2 (≈ 0.357 µM)	3.13 (≈ 5.59 µM)	0.78 (≈ 1.39 µM)	1.56 (≈ 2.79 µM)	0.39 (≈ 0.697 µM)	CCOCCc1nnn(CC(I)=C(I)I)n1
3.13 (≈ 5.91 µM)	–	–	–	–	CC(C)c1nnnn1CC(I)=C(I)I
0.39 (≈ 0.799 µM)	3.13 (≈ 6.42 µM)	–	3.13 (≈ 6.42 µM)	–	IC(I)=C(I)Cn1cnnn1
0.1 (≈ 0.179 µM)	6.25 (≈ 11.2 µM)	3.13 (≈ 5.59 µM)	6.25 (≈ 11.2 µM)	1.56 (≈ 2.79 µM)	CCOCCc1nnnn1CC(I)=C(I)I
0.2 (≈ 0.411 µM)	0.78 (≈ 1.6 µM)	0.39 (≈ 0.801 µM)	1.56 (≈ 3.2 µM)	0.39 (≈ 0.801 µM)	IC(I)=C(I)Cn1nccn1
0.1 (≈ 0.205 µM)	0.2 (≈ 0.41 µM)	0.2 (≈ 0.41 µM)	–	0.1 (≈ 0.205 µM)	IC(I)=C(I)Cn1ncnn1
0.78 (≈ 1.55 µM)	3.13 (≈ 6.24 µM)	–	–	–	Cc1nnnn1CC(I)=C(I)I
0.78 (≈ 1.47 µM)	6.25 (≈ 11.8 µM)	–	–	–	CC(C)c1nnn(CC(I)=C(I)I)n1
0.1 (≈ 0.189 µM)	–	–	–	0.1 (≈ 0.189 µM)	CCCc1nnnn1CC(I)=C(I)I

Further lines, the molecule ahead of its results:

SMILES	MIC [1] [µg/mL]	MIC [2] [µg/mL]	MIC [3] [µg/mL]	MIC [4] [µg/mL]	MIC [5] [µg/mL]
CC(=O)c1cccn1CC(I)=C(I)I	1.56 (≈ 2.96 µM)	12.5 (≈ 23.7 µM)	12.5 (≈ 23.7 µM)	> 25	0.39 (≈ 0.74 µM)
IC#CCn1nnc(-c2ccc(C3N=NN=N3)cc2)n1	1.56 (≈ 4.13 µM)	> 100	> 100	> 100	1.56 (≈ 4.13 µM)
IC#CCn1nnc(Cc2ccccc2)n1	0.1 (≈ 0.309 µM)	6.25 (≈ 19.3 µM)	0.78 (≈ 2.41 µM)	6.25 (≈ 19.3 µM)	0.1 (≈ 0.309 µM)
IC#CCn1nnc(-c2ccccc2)n1	0.2 (≈ 0.645 µM)	0.78 (≈ 2.52 µM)	0.2 (≈ 0.645 µM)	1.56 (≈ 5.03 µM)	0.39 (≈ 1.26 µM)
O=[N+]([O-])c1cn(CC#CI)c(Cl)c1Cl	0.1 (≈ 0.29 µM)	0.78 (≈ 2.26 µM)	0.39 (≈ 1.13 µM)	1.56 (≈ 4.52 µM)	0.39 (≈ 1.13 µM)
O=[N+]([O-])c1c(Cl)cccc1-c1cn(CC(I)=C(I)I)cc1Cl	3.13 (≈ 4.64 µM)	12.5 (≈ 18.5 µM)	12.5 (≈ 18.5 µM)	12.5 (≈ 18.5 µM)	6.25 (≈ 9.26 µM)
COC(=O)c1cccn1CC(I)=C(I)I	0.78 (≈ 1.44 µM)	1.56 (≈ 2.87 µM)	3.13 (≈ 5.77 µM)	3.13 (≈ 5.77 µM)	0.39 (≈ 0.718 µM)
CCCCCc1nnn(CC#CI)n1	0.1 (≈ 0.329 µM)	–	0.78 (≈ 2.56 µM)	–	0.1 (≈ 0.329 µM)
Clc1ccc(-c2nnn(CC#CI)n2)cc1	0.1 (≈ 0.29 µM)	–	–	–	0.2 (≈ 0.58 µM)
IC#CCn1nnnc1Cc1ccccc1	0.78 (≈ 2.41 µM)	12.5 (≈ 38.6 µM)	1.56 (≈ 4.81 µM)	12.5 (≈ 38.6 µM)	0.39 (≈ 1.2 µM)
CC(C)Cc1nnnn1CC#CI	1.56 (≈ 5.38 µM)	12.5 (≈ 43.1 µM)	3.13 (≈ 10.8 µM)	6.25 (≈ 21.5 µM)	1.56 (≈ 5.38 µM)
Clc1ccccc1-c1nnn(CC#CI)n1	0.1 (≈ 0.29 µM)	1.56 (≈ 4.53 µM)	0.78 (≈ 2.26 µM)	1.56 (≈ 4.53 µM)	0.1 (≈ 0.29 µM)
IC(I)=C(I)Cn1nnnc1Cc1ccccc1	0.1 (≈ 0.173 µM)	> 25	25 (≈ 43.3 µM)	> 25	0.1 (≈ 0.173 µM)
CC(C)c1nnnn1CC#CI	3.13 (≈ 11.3 µM)	12.5 (≈ 45.3 µM)	6.25 (≈ 22.6 µM)	25 (≈ 90.6 µM)	1.56 (≈ 5.65 µM)
O=[N+]([O-])c1cccn1CC#CI	0.1 (≈ 0.362 µM)	0.78 (≈ 2.83 µM)	0.39 (≈ 1.41 µM)	0.39 (≈ 1.41 µM)	0.39 (≈ 1.41 µM)
Clc1ccccc1C(c1ccccc1)(c1ccccc1)n1ccnc1 [CLOTRIMAZOLE]	0.39 (≈ 1.13 µM)	6.25 (≈ 18.1 µM)	1.56 (≈ 4.52 µM)	1.56 (≈ 4.52 µM)	0.39 (≈ 1.13 µM)
CCOC(=O)c1cn(CC(I)=C(I)I)c(Cl)c1Cl	3.13 (≈ 5 µM)	25 (≈ 39.9 µM)	25 (≈ 39.9 µM)	25 (≈ 39.9 µM)	3.13 (≈ 5 µM)
O=[N+]([O-])c1c(Cl)c(Cl)n(CC(I)=C(I)I)c1Cc1cc(Cl)cc(Cl)c1O	25 (≈ 32.3 µM)	> 25	> 25	> 25	25 (≈ 32.3 µM)
O=[N+]([O-])c1ncnn1CC(I)=C(I)I	0.39 (≈ 0.733 µM)	12.5 (≈ 23.5 µM)	0.39 (≈ 0.733 µM)	0.78 (≈ 1.47 µM)	0.2 (≈ 0.376 µM)
O=[N+]([O-])c1ccc(-c2nnn(CC#CI)n2)cc1	0.2 (≈ 0.563 µM)	25 (≈ 70.4 µM)	6.25 (≈ 17.6 µM)	3.13 (≈ 8.81 µM)	0.39 (≈ 1.1 µM)
O=[N+]([O-])c1cn(CC(I)=C(I)I)c(Cl)c1Cl	0.2 (≈ 0.334 µM)	0.39 (≈ 0.651 µM)	0.2 (≈ 0.334 µM)	0.2 (≈ 0.334 µM)	–
O=[N+]([O-])c1nccn1CC(I)=C(I)I	0.78 (≈ 1.47 µM)	0.78 (≈ 1.47 µM)	–	–	–
IC(I)=C(I)Cn1ccnc1	1.56 (≈ 3.21 µM)	1.56 (≈ 3.21 µM)	1.56 (≈ 3.21 µM)	–	3.13 (≈ 6.44 µM)

Source: ChEMBL document CHEMBL1123701, “Synthesis and quantitative structure-activity relationship analysis of N-triiodoallyl- and N-iodopropargylazoles. New antifungal agents” (1987)
